Source: patent publication US20120016019A1, “PHARMACEUTICAL COMPOSITION FOR TREATING OR PREVENTING CANCER” (priority 2010, published 2012)
“And” between values parts separate entries of the source, which are not always exact repeats. Equal values may be shown once. Read-outs that look alike come from different tables or passages of the source.

Experiments:
BJ = type: cell-based; details: for cell counts, Mean value / cell counts: BJ; for cell counts: single count
Procedure: (§1) As a result, LC-50 curves were generated in the 1st week.
(§2) In the 2nd plate, 7 d of the 1st week (LC-50) is the same as 0 h of the 2nd week (recovery).
(§3) At 0 h of the 2nd week, medium was exchanged with untreated medium for the remainder of the experiment. The untreated controls were not measured in the 2nd week (recovery) due to overconfluence by the end of the 1st week. As a result, Recovery curves were generated in the 2nd week.
(15) BJ—Normal Fibroblasts BJ cells were derived from normal foreskin of a newborn, and have a long lifespan in comparison with other normal human fibroblast cells. Although they have the capacity to proliferate to a maximum of 72 population doublings before the onset of senescence, they are telomerase negative.

RKO = test: Cell counts, RKO; type: cell-based
Procedure: as §1, §2, §3

C-6 = test: Cell counts, C-6; type: cell-based, rat
Procedure: Cancer cell lines HCC 1419, MCF-7, MDA-MB-468, SKBR3, PC3, HT1299, Saos-2, C-6, AsPc, MDA-MB-231, RKO, HeLa and TT, and normal cell lines HME 50 HT, BJ and CCD-1074sk were tested for changes in metabolism (XTT assay) and cell death (cell counts).
(§4) Cells were plated into 48-well Corning CellBind™ plates at densities of 20,000 cells for normal cells and 10,000˜20,000 cells for cancer cells. 24 to 48 h after plating, cells were treated with the composition according to the invention at concentrations of 4.5e-2M. The first time point treated with the composition of the invention is 0 h. At 3 days after the first treatment with the composition of the invention, medium was changed and the composition of the invention at the same concentrations were added to the cultured cells.
(§5) Cells were harvested using Trypsin-EDTA at the designated time points. When total cells for each well were counted with a Beckman-Coulter Z1 Particle Characterization Unit, the vertical axis represents 1/20 of cell number in the Figures attached to the specification, while when counted with a Beckman-Coulter Vi-Cell, the vertical axis represents cell number in the Figures. Two 48-well plates were used per cell line, and they were measured at 0 h, 12 h, 24 h, 48 h, 4 d and 7 d, respectively.
(§6) In the 1st plate, cells were treated with the composition according to the invention and medium was changed at 0 h and 3 d. […] As a result, LC-50 curves were generated in the 1st week.
C-6 is glioblastoma cells.

HME 50 HT = type: cell-based; details: for cell counts: single count
Procedure: as §1, §2, §3
Human Mammary Epithelial (HME) cells were derived from adjacent normal tissue.

HCC 1419 = test: Cell counts, HCC 1419; type: cell-based; details: for cell counts: single wells
Procedure: Cells were plated into 48-well Corning CellBind™ plates at densities of 20,000 cells for normal cells and 10,000˜20,000 cells for cancer cells. […] The first time point treated with the composition of the invention is 0 h.
Cells were harvested using Trypsin-EDTA at the designated time points. […] Two 48-well plates were used per cell line, and they were measured at 0 h, 12 h, 24 h, 48 h, 4 d and 7 d, respectively.
as §6

TT = test: Viability by trypan blue staining, TT; type: cell-based; details: for viability (%) calculated from the cell counts: single value
Procedure: as §4, §5
The viability was determined by using the trypan blue staining in the well of cell counting.

[1] = HME 50 HT, 1st week (LC50), 0 h
[2] = HME 50 HT, 1st week (LC50), 12 h
[3] = HME 50 HT, 1st week (LC50), 24 h
[4] = HME 50 HT, 1st week (LC50), 48 h
[5] = HME 50 HT, 1st week (LC50), 4 d
[6] = HME 50 HT, 1st week (LC50), 7 d

CC(=O)O[C@H]1C(=O)[C@@]2(C)[C@H]([C@H](OC(=O)c3ccccc3)[C@]3(O)C[C@H](OC(=O)[C@H](O)[C@@H](NC(=O)c4ccccc4)c4ccccc4)C(C)=C1C3(C)C)[C@]1(OC(C)=O)CO[C@@H]1C[C@@H]2O [Taxol] was tested, and the “appearance of normal cells (microscopy)” value (BJ) was “fully destroyed”, the “proliferation of normal cells” value (BJ) was “decreased due to stress by toxicity of Taxol” and the “cell counts, Mean value” (BJ; 1st week (LC50), 0 h) was 16333. For the same compound, the cell counts (BJ; 1st week (LC50), 0 h) was 14000 and 17000 and 18000, the “cell counts, Mean value” (BJ; 1st week (LC50), 12 h) was 11000 and the cell counts (BJ; 1st week (LC50), 12 h) was 12000 and 9000. For the same compound, the “cell counts, Mean value” (BJ; 1st week (LC50), 24 h) was 12667, the cell counts (BJ; 1st week (LC50), 24 h) was 10000 and 17000 and 11000 and the “cell counts, Mean value” (BJ; 1st week (LC50), 48 h) was 11667. For the same compound, the cell counts (BJ; 1st week (LC50), 48 h) was 14000 and 10000 and 11000, the “cell counts, Mean value” (BJ; 1st week (LC50), 4 d) was 6333 and the cell counts (BJ; 1st week (LC50), 4 d) was 9000 and 5000. The “cell counts, Mean value” (BJ; 1st week (LC50), 7 d) was 6667, the “cell counts, Mean value” (BJ; 2nd week (recovery), 0 h) was 19 and the “cell counts, Mean value” (BJ; 2nd week (recovery), 24 h) was 8. The cell counts (BJ; 2nd week (recovery), 24 h) was 7 and 9, the “cell counts, Mean value” (BJ; 2nd week (recovery), 48 h) was 13 and the cell counts (BJ; 2nd week (recovery), 48 h) was 8 and 14 and 16. The “cell counts, Mean value” (BJ; 2nd week (recovery), 4 d) was 11, the “cell counts, Mean value” (BJ; 2nd week (recovery), 7 d) was 28 and the cell counts (BJ; 2nd week (recovery), 7 d) was 35 and 29 and 19. The cell counts (RKO; 1st week (LC50), 0 h) was 48000 and 49000 and 54000, the “cell counts, Mean value” (RKO; 1st week (LC50), 0 h) was 50333 and the cell counts (RKO; 1st week (LC50), 24 h) was 101600 and 98000 and 99800. For the same compound, the “cell counts, Mean value” (RKO; 1st week (LC50), 24 h) was 99800, the “cell counts, Mean value” (RKO; 1st week (LC50), 48 h) was 78733 and the cell counts (RKO; 1st week (LC50), 4 d) was 36000. For the same compound, the “cell counts, Mean value” (RKO; 1st week (LC50), 4 d) was 36000, the cell counts (RKO; 1st week (LC50), 7 d) was 38600 and 25400 and 22800 and the “cell counts, Mean value” (RKO; 1st week (LC50), 7 d) was 28933. For the same compound, the cell counts (RKO; 2nd week (recovery), 0 h) was 57000 and 58000 and 53000, the “cell counts, Mean value” (RKO; 2nd week (recovery), 0 h) was 56000 and the cell counts (RKO; 2nd week (recovery), 24 h) was 26000 and 31000 and 39000. For the same compound, the “cell counts, Mean value” (RKO; 2nd week (recovery), 24 h) was 32000, the cell counts (RKO; 2nd week (recovery), 48 h) was 35000 and 38000 and 30000 and the “cell counts, Mean value” (RKO; 2nd week (recovery), 48 h) was 34333. The cell counts (RKO; 2nd week (recovery), 4 d) was 39000 and 31000 and 26000, the “cell counts, Mean value” (RKO; 2nd week (recovery), 4 d) was 32000 and the “cell counts, Mean value” (RKO; 2nd week (recovery), 7 d) was 35000. For the same compound, the cell counts (C-6; 1st week (LC50), 0 h) was 6111 and 7077 and 4897, the “cell counts, Mean value” (C-6; 1st week (LC50), 0 h) was 6028 and the cell counts (C-6; 1st week (LC50), 12 h) was 3726 and 4240. The “cell counts, Mean value” (C-6; 1st week (LC50), 12 h) was 4469, the cell counts (C-6; 1st week (LC50), 24 h) was 3895 and 3853 and 3340 and the “cell counts, Mean value” (C-6; 1st week (LC50), 24 h) was 3696. The cell counts (C-6; 1st week (LC50), 48 h) was 6630 and 6722, the “cell counts, Mean value” (C-6; 1st week (LC50), 48 h) was 6243 and the cell counts (C-6; 1st week (LC50), 4 d) was 6026 and 6751 and 6905. The “cell counts, Mean value” (C-6; 1st week (LC50), 4 d) was 6561, the “cell counts, Mean value” (C-6; 1st week (LC50), 7 d) was 4450 and the cell counts (C-6; 2nd week (recovery), 0 h) was 2984 and 3948 and 4207. The “cell counts, Mean value” (C-6; 2nd week (recovery), 0 h) was 3713, the cell counts (C-6; 2nd week (recovery), 24 h) was 3392 and 4285 and 3984 and the “cell counts, Mean value” (C-6; 2nd week (recovery), 24 h) was 3887. The cell counts (C-6; 2nd week (recovery), 48 h) was 3166 and 3930, the “cell counts, Mean value” (C-6; 2nd week (recovery), 48 h) was 4184 and the cell counts (C-6; 2nd week (recovery), 4 d) was 4825 and 3184. For the same compound, the “cell counts, Mean value” (C-6; 2nd week (recovery), 4 d) was 4031, the cell counts (C-6; 2nd week (recovery), 7 d) was 3989 and 4316 and 3634 and the “cell counts, Mean value” (C-6; 2nd week (recovery), 7 d) was 3980. The “response of the cells” value (C-6; composition: after 4 days of exposure) was “resistance to Taxol”, the “number of normal cells” value (HME 50 HT) was “the number of cells did not increase, and was merely maintained for two weeks” and the “cell counts, Mean value” (HME 50 HT; [1]) was 14667. For the same compound, the cell counts (HME 50 HT; [1]) was 12000 and 11000 and 21000, the “cell counts, Mean value” (HME 50 HT; [2]) was 16667 and the cell counts (HME 50 HT; [2]) was 14000 and 23000 and 13000. The “cell counts, Mean value” (HME 50 HT; [3]) was 11333, the cell counts (HME 50 HT; [3]) was 14000 and 11000 and 9000 and the “cell counts, Mean value” (HME 50 HT; [4]) was 15667. The cell counts (HME 50 HT; [4]) was 18000 and 11000, the “cell counts, Mean value” (HME 50 HT; [5]) was 9000 and the cell counts (HME 50 HT; [5]) was 9000. For the same compound, the “cell counts, Mean value” (HME 50 HT; [6]) was 16667, the cell counts (HME 50 HT; [6]) was 17000 and 19000 and 14000 and the “cell counts, Mean value” (HME 50 HT; HME, 2nd week (recovery), 0 h) was 16333. The cell counts (HME 50 HT; HME, 2nd week (recovery), 0 h) was 19000 and 17000 and 13000, the “cell counts, Mean value” (HME 50 HT; HME, 2nd week (recovery), 12 h) was 13667 and the cell counts (HME 50 HT; HME, 2nd week (recovery), 12 h) was 13000 and 15000. For the same compound, the “cell counts, Mean value” (HME 50 HT; HME, 2nd week (recovery), 24 h) was 12667, the cell counts (HME 50 HT; HME, 2nd week (recovery), 24 h) was 12000 and 15000 and 11000 and the “cell counts, Mean value” (HME 50 HT; HME, 2nd week (recovery), 48 h) was 17000. For the same compound, the cell counts (HME 50 HT; HME, 2nd week (recovery), 48 h) was 18000 and 16000 and 17000, the “cell counts, Mean value” (HME 50 HT; HME, 2nd week (recovery), 4 d) was 16333 and the cell counts (HME 50 HT; HME, 2nd week (recovery), 4 d) was 18000 and 19000 and 12000. For the same compound, the “cell counts, Mean value” (HME 50 HT; HME, 2nd week (recovery), 7 d) was 16000, the cell counts (HME 50 HT; HME, 2nd week (recovery), 7 d) was 14000 and 19000 and 15000 and the “growth pattern of the cells in the well (microscopy)” value (HCC 1419) was “growing in a diffuse, spreading pattern over the whole well”. For the same compound, the “number of cancer cells (course)” value (HCC 1419; 1st week (LC50) and 2nd week (recovery)) was “did not decreased any more and was maintained”, the “cell counts, Mean value” (HCC 1419; 1st week (LC50), 0 h) was 3156 and the cell counts (HCC 1419; 1st week (LC50), 0 h) was 3055 and 2626 and 3788. The “cell counts, Mean value” (HCC 1419; 1st week (LC50), 12 h) was 3479, the cell counts (HCC 1419; 1st week (LC50), 12 h) was 3434 and 3451 and 3553 and the “cell counts, Mean value” (HCC 1419; 1st week (LC50), 24 h) was 3036. The cell counts (HCC 1419; 1st week (LC50), 24 h) was 2957 and 3488 and 2664, the “cell counts, Mean value” (HCC 1419; 1st week (LC50), 48 h) was 2978 and the cell counts (HCC 1419; 1st week (LC50), 48 h) was 2232 and 3502 and 3199. The “cell counts, Mean value” (HCC 1419; 1st week (LC50), 4 d) was 2544, the cell counts (HCC 1419; 1st week (LC50), 4 d) was 1716 and 2940 and 2975 and the “cell counts, Mean value” (HCC 1419; 1st week (LC50), 7 d) was 1741. The cell counts (HCC 1419; 1st week (LC50), 7 d) was 1718 and 1710 and 1794, the “cell counts, Mean value” (HCC 1419; 2nd week (recovery), 0 h) was 8878 and the cell counts (HCC 1419; 2nd week (recovery), 0 h) was 8472 and 8522 and 9639. For the same compound, the cell counts (HCC 1419; 2nd week (recovery), 24 h) was 7966, the cell counts (HCC 1419; 2nd week (recovery), 48 h) was 4901 and the cell counts (HCC 1419; 2nd week (recovery), 7 d) was 7316 and 3792. For the same compound, the “viability (%)” value (TT; 1st week (LC50), 0 h) was 79.5% and 80.8% and 78.4%, the “viability (%), Mean value” (TT; 1st week (LC50), 0 h) was 79.6% and the “viability (%)” value (TT; 1st week (LC50), 24 h) was 76.5% and 64.7% and 72.7%. The “viability (%), Mean value” (TT; 1st week (LC50), 24 h) was 71.3%, the “viability (%)” value (TT; 1st week (LC50), 48 h) was 72.5% and 72% and 76.9% and the “viability (%), Mean value” (TT; 1st week (LC50), 48 h) was 73.8%. For the same compound, the “viability (%)” value (TT; 1st week (LC50), 4 d) was 70.1%, the “viability (%), Mean value” (TT; 1st week (LC50), 4 d) was 67.8% and the “viability (%)” value (TT; 1st week (LC50), 7 d) was 75% and 37.5%. For the same compound, the “viability (%), Mean value” (TT; 1st week (LC50), 7 d) was 59.7%, the “viability (%), Mean value” (TT; 2nd week (recovery), 0 h, trypan blue, mean value) was 65% and the “viability (%) calculated from the cell counts” value (TT; 2nd week (recovery), 0 h, trypan blue) was 70% and 75% and 50%. The “viability (%), Mean value” (TT; 2nd week (recovery), 24 h, trypan blue, mean value) was 41.1%, the “viability (%), Mean value” (TT; 2nd week (recovery), 48 h, trypan blue, mean value) was 35.1% and the “viability (%), Mean value” (TT; 2nd week (recovery), 4 d, trypan blue, mean value) was 37.6%. The “viability (%), Mean value” (TT; 2nd week (recovery), 7 d, trypan blue, mean value) was 33.5% and the “viability (%) calculated from the cell counts” value (TT; 2nd week (recovery), 7 d, trypan blue) was 25% and 42.3%.
